Assay results as given in US12653815B2, “Luminally-acting N-(piperidin-4-yl)benzamide derivatives” (Takeda Pharmaceutical Company Limited, priority 2020, dated 2026).

molecular target: T1, human 5-HT4(b) receptor (Homo sapiens, UniProt Q13639); experiment: 5-HT4(b) agonist assay (cAMP accumulation); assay type: cell-based; settings: CHO-K1 cells overexpressing full-length human 5-HT4(b) receptor; cAMP accumulation after 30 minutes at room temperature; 1 μM 5-HT as 100% activity
T1 construct: overexpressing the full-length human 5-HT4(b) receptor with an N-terminal FLAG tag; FLAG (N); host or cells: CHO-K1
T1 sequence (Q13639 whole entry): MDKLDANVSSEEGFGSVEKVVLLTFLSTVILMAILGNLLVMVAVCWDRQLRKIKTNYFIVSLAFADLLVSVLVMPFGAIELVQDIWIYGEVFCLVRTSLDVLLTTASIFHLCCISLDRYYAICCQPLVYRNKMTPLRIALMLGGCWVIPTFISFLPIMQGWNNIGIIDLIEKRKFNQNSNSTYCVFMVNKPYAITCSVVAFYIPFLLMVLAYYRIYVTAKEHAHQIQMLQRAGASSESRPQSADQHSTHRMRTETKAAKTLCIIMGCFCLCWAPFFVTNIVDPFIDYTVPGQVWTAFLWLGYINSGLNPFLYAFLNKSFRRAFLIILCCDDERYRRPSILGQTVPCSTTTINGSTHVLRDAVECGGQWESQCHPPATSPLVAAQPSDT
Procedure: One may determine the activity of the compounds of Formula 1 using a variety of methods, including in vitro and in vivo methods. The ability of the example compounds to activate the 5-HT4(b) receptor may be determined using the following assay.
Chinese hamster ovary (CHO-K1) cells overexpressing the full-length human 5-HT4(b) receptor with an N-terminal FLAG tag (Multispan Inc, Hayward, CA) are cultured per the manufacturer's protocol in 1:1 DMEM/F12 (Thermo Fisher, Waltham, MA) with 10% fetal bovine serum (GE Healthcare, Pittsburgh, PA) and 10 μg/mL puromycin (Thermo Fisher, Waltham, MA), and stored in frozen aliquots to be used as assay ready cells. On the day of the assay, cells are removed from frozen storage, washed two times in 1× Kreb's Ringer Buffer (Zenbio, Research Triangle Park, NC), and re-suspended to a concentration of 4×10^6 cells/mL in 1× Kreb's Ringer Buffer. Test compound (50 nL) in 100% DMSO is acoustically dispensed in low volume, white, 384-well polypropylene plates (Corning, Tewksbury, MA), followed by the addition of 4×10^4 cells per well in a total volume of 10 μL. Cells are incubated with test compound for 30 minutes at room temperature in the dark, and cAMP accumulation is measured using the Cisbio HiRange cAMP assay kit (Bedford, MA) per the manufacturer's protocol. Anti-cAMP antibody and d2-cAMP tracer reagents diluted in lysis/detection buffer are incubated in the dark for 1 hour, and results are measured on a Pherastar plate reader (BMG Labtech, Ortenberg, Germany). Data are normalized using 1 μM 5-HT (Sigma Aldrich, St. Louis, MO) as 100% activity, and DMSO alone as 0% activity.
The ability of the example compounds to activate the 5-HT4(b) receptor was evaluated using the assay described in the Biological Activity section. Table 1, below, lists EC50 from the 5-HT4(b) agonist assay for each of the example compounds, where smaller EC50 values represent higher potency.

**Q.** How did the EC50 turn out when `COc1cc(N)c(Cl)cc1C(=O)N[C@@H]1CCN(CC(C)CCCC(=O)NCCCCCCCC(=O)NC[C@H](O)[C@@H](O)[C@H](O)[C@H](O)CO)C[C@@H]1OC` (stereo partly drawn) [Example 19, 4-amino-5-chloro-2-methoxy-N-((3S,4R)-3-methoxy-1-(2-methyloxo-6-((8-oxo-8-(((2S,3R,4R,5R)-2,3,4,5,6-pentahydroxyhexyl)amino)octyl)amino)hexyl)piperidin-4-yl)benzamide] was run?
**A.** Its EC50 is 77 nM.

**Q.** With `COc1cc(N)c(Cl)cc1C(=O)N[C@@H]1CCN(CCC(C)CCC(=O)NCCCCCCCC(=O)NC[C@H](O)[C@@H](O)[C@H](O)[C@H](O)CO)C[C@@H]1OC` (stereo partly drawn) [Example 20, 4-amino-5-chloro-2-methoxy-N-((3S,4R)-3-methoxy-1-(3-methyl-6-oxo-6-((8-oxo-8-(((2S,3R,4R,5R)-2,3,4,5,6-pentahydroxyhexyl)amino)octyl)amino)hexyl)piperidin-4-yl)benzamide] as the compound, how does the EC50 read?
**A.** The EC50 was 57.6 nM.

**Q.** `COc1cc(N)c(Cl)cc1C(=O)N[C@@H]1CCN(CCCC(C)CC(=O)NCCCCCCCC(=O)NC[C@H](O)[C@@H](O)[C@H](O)[C@H](O)CO)C[C@@H]1OC` (stereo partly drawn) [Example 21, 4-amino-5-chloro-2-methoxy-N-((3S,4R)-3-methoxy-1-(4-methyl-6-oxo-6-((8-oxo-8-(((2S,3R,4R,5R)-2,3,4,5,6-pentahydroxyhexyl)amino)octyl)amino)hexyl)piperidin-4-yl)benzamide] was tested. Which EC50 did it give?
**A.** Its EC50 is 27.6 nM.

**Q.** Which EC50 does the source give for `COc1cc(N)c(Cl)cc1C(=O)N[C@@H]1CCN(CCCCCC(=O)NCCCCCCCC(=O)N(CCO)C[C@H](O)[C@@H](O)[C@H](O)[C@H](O)CO)C[C@@H]1OC` [Example 22, 4-amino-5-chloro-N-((3 S,4R)-1-(6-((8-((2-hydroxyethyl)((2S,3R,4R,5R)-2,3,4,5,6-pentahydroxyhexyl)amino)-8-oxooctyl)amino)-6-oxohexyl)-3-methoxypiperidin-4-yl)-2-methoxybenzamide] here?
**A.** The EC50 was 19.1 nM.

**Q.** `COc1cc(N)c(Cl)cc1C(=O)N[C@@H]1CCN(CCCCCC(=O)NCCCCCCCC(=O)NCCS(=O)(=O)O)C[C@@H]1OC` [Example 23, 2-(8-(6-((3S,4R)-4-(4-amino-5-chloro-2-methoxybenzamido)-3-methoxypiperidin-1-yl)hexanamido)octanamido)ethane-1-sulfonic acid] was tested. Which EC50 did it give?
**A.** Its EC50 is 56.5 nM.

**Q.** How did the EC50 turn out when `COc1cc(N)c(Cl)cc1C(=O)N[C@@H]1CCN(CCCCCC(=O)NCCCCCCCC(=O)N[C@H]2C[C@](O)(CO)[C@@H](O)[C@H](O)[C@H]2O)C[C@@H]1OC` [Example 24, 4-amino-5-chloro-2-methoxy-N-((3S,4R)-3-methoxy-1-(6-oxo ((8-oxo-8-(((1S,2S,3R,4S,5S)-2,3,4,5-tetrahydroxy (hydroxymethyl)cyclohexyl)amino)octyl)amino)hexyl)piperidin-4-yl)benzamide] was run?
**A.** Its EC50 is 28.7 nM.

**Q.** How did the EC50 turn out when `COc1cc(N)c(Cl)cc1C(=O)N[C@@H]1CCN(CCCCCC(=O)NCCCCCCCC(=O)NCCP(=O)(O)O)C[C@@H]1OC` [Example 25, (2-(8-(6-((3S,4R)-4-(4-amino-5-chloro-2-methoxybenzamido)-3-methoxypiperidin-1-yl)hexanamido)octanamido)ethyl)phosphonic acid] was run?
**A.** Its EC50 is 115 nM.

**Q.** `COc1cc(N)c(Cl)cc1C(=O)N[C@@H]1CCN(CCCCCC(=O)NCCCCCCCC(=O)N(CCP(=O)(O)O)C[C@H](O)[C@@H](O)[C@H](O)[C@H](O)CO)C[C@@H]1OC` [Example 26, (2-(8-(6-((3S,4R)-4-(4-amino-5-chloro-2-methoxybenzamido)-3-methoxypiperidin-1-yl)hexanamido)-N-((2S,3R,4R,5R)-2,3,4,5,6-pentahydroxyhexyl)octanamido)ethyl)phosphonic acid] was tested. Which EC50 did it give?
**A.** The EC50 was 131 nM.

**Q.** For `COc1cc(N)c(Cl)cc1C(=O)N[C@@H]1CCN(CCCCCC(=O)NCCCCCCCC(=O)N(CCCN(C)C)CCS(=O)(=O)O)C[C@@H]1OC` [Example 27, 2-(8-(6-((3S,4R)-4-(4-amino-5-chloro-2-methoxybenzamido)methoxypiperidin-1-yl)hexanamido)-N-(3-(dimethylamino)propyl)octanamido)ethane-1-sulfonic acid], which EC50 is on record?
**A.** The EC50 was 30.3 nM.

**Q.** With `Nc1c(Cl)cc(C(=O)NC2CCN(CCCCCC(=O)N[C@@H]3CCCN(CCCCCCCC(=O)NC[C@H](O)[C@@H](O)[C@H](O)[C@H](O)CO)C3)CC2)c2c1CCO2` [Example 28, 4-amino-5-chloro-N-(1-(6-oxo-6-(((R)-1-(8-oxo-8-(((2S,3R,4R,5R)-2,3,4,5,6-pentahydroxyhexyl)amino)octyl)piperidin-3-yl)amino)hexyl)piperidin-4-yl)-2,3-dihydrobenzofuran-7-carboxamide] as the compound, how does the EC50 read?
**A.** Its EC50 is 3.8 nM.

**Q.** How did the EC50 turn out when `Nc1c(Cl)cc(C(=O)NC2CCN(CCCCCC(=O)N[C@@H]3CCCN(CCCCCC(=O)NC[C@H](O)[C@@H](O)[C@H](O)[C@H](O)CO)C3)CC2)c2c1CCO2` [Example 29, 4-amino-5-chloro-N-(1-(6-oxo-6-(((R)-1-(6-oxo-6-(((2S,3R,4R,5R)-2,3,4,5,6-pentahydroxyhexyl)amino)hexyl)piperidin-3-yl)amino)hexyl)piperidin-4-yl)-2,3-dihydrobenzofuran-7-carboxamide] was run?
**A.** Its EC50 is 4.4 nM.

**Q.** How did the EC50 turn out when `Nc1c(Cl)cc(C(=O)NC2CCN(CCCCCC(=O)NC3CCN(CCCCCCCC(=O)NC[C@H](O)[C@@H](O)[C@H](O)[C@H](O)CO)CC3)CC2)c2c1CCO2` [Example 30, 4-amino-5-chloro-N-(1-(6-oxo-6-((1-(8-oxo-8-(((2S,3R,4R,5R)-2,3,4,5,6-pentahydroxyhexyl)amino)octyl)piperidin-4-yl)amino)hexyl)piperidin-4-yl)-2,3-dihydrobenzofuran-7-carboxamide] was run?
**A.** The EC50 was 3.7 nM.

**Q.** Which EC50 does the source give for `Nc1c(Cl)cc(C(=O)NC2CCN(CCCCCC(=O)NC3CCN(CCCCCC(=O)NC[C@H](O)[C@@H](O)[C@H](O)[C@H](O)CO)CC3)CC2)c2c1CCO2` [Example 31, 4-amino-5-chloro-N-(1-(6-oxo-6-((1-(6-oxo-6-(((2S,3R,4R,5R)-2,3,4,5,6-pentahydroxyhexyl)amino)hexyl)piperidin-4-yl)amino)hexyl)piperidin-4-yl)-2,3-dihydrobenzofuran-7-carboxamide] here?
**A.** Its EC50 is 6.1 nM.

**Q.** Which EC50 does the source give for `Nc1c(Cl)cc(C(=O)NC2CCN(CCCCCC(=O)NCCCCCCCC(=O)NC[C@H](O)[C@@H](O)[C@H](O)[C@H](O)CO)CC2)c2c1CCO2` [Example 32, 4-amino-5-chloro-N-(1-(6-oxo-6-((8-oxo-8-(((2S,3R,4R,5R)-2,3,4,5,6-pentahydroxyhexyl)amino)octyl)amino)hexyl)piperidin-4-yl)-2,3-dihydrobenzofuran-7-carboxamide] here?
**A.** Its EC50 is 23 nM.

**Q.** Which EC50 does the source give for `Nc1c(Cl)cc(C(=O)NC2CCN(CCCCCC(=O)NCCCCCC(=O)NC[C@H](O)[C@@H](O)[C@H](O)[C@H](O)CO)CC2)c2c1CCO2` [Example 33, 4-amino-5-chloro-N-(1-(6-oxo-6-((6-oxo-6-(((2S,3R,4R,5R)-2,3,4,5,6-pentahydroxyhexyl)amino)hexyl)amino)hexyl)piperidin-4-yl)-2,3-dihydrobenzofuran-7-carboxamide] here?
**A.** The EC50 was 12.6 nM.

**Q.** Which EC50 does the source give for `Nc1c(Cl)cc(C(=O)NC2CCN(CCCCCC(=O)NCCCC(=O)NC[C@H](O)[C@@H](O)[C@H](O)[C@H](O)CO)CC2)c2c1CCO2` [Example 34, 4-amino-5-chloro-N-(1-(6-oxo-6-((4-oxo-4-(((2S,3R,4R,5R)-2,3,4,5,6-pentahydroxyhexyl)amino)butyl)amino)hexyl)piperidin-4-yl)-2,3-dihydrobenzofuran-7-carboxamide] here?
**A.** Its EC50 is 15.3 nM.

**Q.** Which EC50 does the source give for `Nc1c(Cl)cc(C(=O)NCC2CCN(CC3CCN(CCCCCCCCC(=O)NC[C@H](O)[C@@H](O)[C@H](O)[C@H](O)CO)CC3)CC2)c2c1CCO2` [Example 35, 4-amino-5-chloro-N-((1-((1-(9-oxo-9-(((2S,3R,4R,5R)-2,3,4,5,6-pentahydroxyhexyl)amino)nonyl)piperidin-4-yl)methyl)piperidin-4-yl)methyl)-2,3-dihydrobenzofuran-7-carboxamide] here?
**A.** Its EC50 is 2.6 nM.

**Q.** For `Nc1c(Cl)cc(C(=O)NCC2CCN(CC3CCN(CCCCCCCCCCC(=O)NC[C@H](O)[C@@H](O)[C@H](O)[C@H](O)CO)CC3)CC2)c2c1CCO2` [Example 36, 4-amino-5-chloro-N-((1-((1-(11-oxo-11-(((2S,3R,4R,5R)-2,3,4,5,6-pentahydroxyhexyl)amino)undecyl)piperidin-4-yl)methyl)piperidin-4-yl)methyl)-2,3-dihydrobenzofuran-7-carboxamide], which EC50 is on record?
**A.** The EC50 was 2.5 nM.

**Q.** For `Nc1c(Cl)cc(C(=O)NCC2CCN(CC3CCN(CCCCCCC(=O)NC[C@H](O)[C@@H](O)[C@H](O)[C@H](O)CO)CC3)CC2)c2c1CCO2` [Example 37, 4-amino-5-chloro-N-((1-((1-(7-oxo-7-(((2S,3R,4R,5R)-2,3,4,5,6-pentahydroxyhexyl)amino)heptyl)piperidin-4-yl)methyl)piperidin-4-yl)methyl)-2,3-dihydrobenzofuran-7-carboxamide], which EC50 is on record?
**A.** Its EC50 is 2 nM.
